“Also recorded” adds a separate entry of the source.
Key:
[1] = system: PD-1 protein; experiment: Immunoblot of PD-1 protein in CD3+ T lymphocyte cell extracts; format: cell-based, human; conditions: CD3+ T lymphocytes cell extracts, treated or not with CI-980; 3 independent experiments
Experimental: CD3+T lymphocytes cell extracts, treated or not with CI-980, were analyzed by immunoblots.

[2] = system: PD-1 mRNA; experiment: qRT-PCR of PD-1 mRNA from activated CD3+ T lymphocytes; format: cell-based, human; conditions: activated CD3+ T lymphocytes treated or not with CI-980; 3 independent experiments
[3] = system: LAG3; experiment: Immune checkpoint expression by activated T lymphocytes (flow cytometry), LAG3; format: cell-based, human; conditions: CD3+ T lymphocytes activated with anti-CD3/CD28 beads + IL-2; CI-980 10 nM; 3 days
Experimental: (§1) CD3+ T lymphocyes were activated with anti-CD3/CD28 antibodies-coated beads plus IL-2, in the presence or absence of CI-980 (10 nM), and immune checkpoint expression were assessed by flow cytometry 3 days later.
(§2) PBMC isolated from healthy donors were activated with CD3/CD28 antibodies-coated beads (ThermoFisher) and IL-2 (100 IU/ml) in the presence of the specified concentration of the tested drug. In the example (FIG. 1), these drugs include CI-980 (so-called NSC 613862 or mivobulin) (10 nM, or 1 nM and 0.1 nM as indicated in Figures), Combretastatin-A4 (CBT-A4), (100 nM), Colchicine (100 nM), Indibulin (100 nM), Vincristine (1 μM), Vinblastine (1 μM), Vinflunine (1 μM), Vinorelbine (1 μM), Paclitaxel (1 μM), 13-Lumi(−)-Colchicine (100 nM), Camptothecin (CPT) (1 μM), Triptolide (100 nM), Mitomycin C (1 μM), Aphidicolin (1 μM). After 3 days of in vitro cell culture in complete medium at 37° C. in a humidified atmosphere containing 5% CO2, cells were immunostained for CD3 (BioLegend, clone UCHT1), CD4 (BioLegend, clone RPA-T4), CD8 (BioLegend, clone RPA-T8), CD69 (BioLegend, clone FN50), CD279 (BD Biosciences, clone EH12.1), LAG3 (BioLegend, clone 11C3C65), TIM3 (BioLegend, clone F38-2E2) and CTLA4 (BioLegend, clone BNI3) expression and then analysed for immune checkpoint expression by flow cytometry and gating on the indicated subsets of T or NK cells.

[4] = system: TIM3; experiment: Immune checkpoint expression by activated T lymphocytes (flow cytometry), TIM3; format: cell-based, human; conditions: CD3+ T lymphocytes activated with anti-CD3/CD28 beads + IL-2; CI-980 10 nM; 3 days
Experimental: as §1, §2

[5] = system: CTLA4; experiment: Immune checkpoint expression by activated T lymphocytes (flow cytometry), CTLA4; format: cell-based, human; conditions: CD3+ T lymphocytes activated with anti-CD3/CD28 beads + IL-2; CI-980 10 nM; 3 days
Experimental: as §1, §2

[6] = system: Karpas-299; experiment: Cytotoxicity assay, drug-treated activated PBMC against Karpas-299; format: cell-based, human; conditions: PBMC activated 3 days with CI-980 10 nM, rinsed, 4 hours with Karpas-299, 2:1 effector-to-target ratio
Experimental: (§3) PBMC isolated from healthy donors were activated with anti-CD3/CD28 antibodies-coated beads plus IL-2, in the presence or absence of CI-980 (10 nM). After 3 days, PBMC were rinsed and co-incubated for 4 hours with the PD-L1^+ cancer cell lines Karpas-299 or SU-DHL-1. Specific lysis of the target cell lines was then measured by staining of dying cells with propidium iodide (PI) and flow cytometry analysis.
(§4) PBMC isolated from healthy donors, used as effector cells, were activated with CD3/CD28 beads and IL-2, in presence or absence of CI-980 (10 nM). Human cancer cell lines-expressing PD-L1 karpas-299 and SU-DHL-1 were used as targets cells. Prior to be mixed with the effector cells, target cells were labelled with CellTrace-Violet (ThermoFisher) in order to distinguish them from the effector cells. After 3 days, effector cells were rinsed and combined with target cells at a 2:1 effector-to-target ratio. Cells were incubated during 4 hours at 37° C. and specific lysis were analysed by flow cytometry. The percentage of lysis was determined as percent of cells positive for both propidium iodide (PI) and CellTrace-Violet versus cells positive for CellTrace-Violet.

[7] = system: SU-DHL-1; experiment: Cytotoxicity assay, drug-treated activated PBMC against SU-DHL-1; format: cell-based, human; conditions: PBMC activated 3 days with CI-980 10 nM, rinsed, 4 hours with SU-DHL-1, 2:1 effector-to-target ratio
Experimental: as §3, §4

[8] = system: PD-1 (CD279); experiment: Cell-based test of PD-1 cell surface expression by activated T lymphocytes (flow cytometry); parameters: species or system human; conditions: PBMC activated with CD3/CD28 beads + IL-2, 3 days, drugs at their optimum IC50 for proliferation (CPT, mitomycin C, aphidicolin 1 μM; triptolide, Lumi-colchicine 100 nM)
Experimental: Shown are means and standard deviations from more than ten independent experiments, using drugs at their respective optimum IC50 for proliferation.
as §2

[9] = target: T1, PD-1 protein (programmed cell death protein 1, endogenous, from activated human CD3+ T lymphocytes) (human, UniProt Q15116 25-288); experiment: co-immunoprecipitation with anti-α-tubulin antibody from activated human CD3+ T lymphocyte extract, immunoblot for PD-1
T1 construct: Endogenous PD-1 in a T lymphocyte cell extract, detected by Western blot with anti-PD-1 (ThermoFisher PA5-20350); also called CD279; PDCD1
T1 sequence (Q15116 25-288 limits assumed): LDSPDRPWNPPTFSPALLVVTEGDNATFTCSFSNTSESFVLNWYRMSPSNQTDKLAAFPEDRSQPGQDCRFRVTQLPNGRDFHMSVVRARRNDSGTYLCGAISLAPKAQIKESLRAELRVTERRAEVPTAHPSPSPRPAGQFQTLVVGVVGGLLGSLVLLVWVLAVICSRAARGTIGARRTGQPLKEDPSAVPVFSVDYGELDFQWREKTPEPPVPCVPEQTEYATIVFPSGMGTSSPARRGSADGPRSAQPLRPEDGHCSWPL
Experimental: FIG. 4: PD-1 protein is not associated with tubulin in T lymphocytes.
α-tubulin was immunoprecipitated from activated CD3+T lymphocytes isolated from human PBMC of healthy donors using an anti-α-tubulin antibody (Sigma-Aldrich, clone B-5-1-2). Immunoprecipitation control with an anti-PD-1 antibody (ebioscience, clone J116) was also carried out. Immunoprecipitates were subjected to SDS-PAGE, and the co-immunoprecipitated PD-1 was assessed by Western Blot using an anti-PD-1 antibody (ThermoFisher, # PA5-20350).

Q: How did the “expression of PD-1 protein (immunoblot)” value [1] turn out when `CCOC(=O)Nc1cc2c(c(N)n1)N=C(c1ccccc1)[C@H](C)N2` [CI-980] was run?
A: inhibit expression of PD-1 protein

Q: And the “PD-1 mRNA level (qRT-PCR)” value [2]?
A: increase PD-1 mRNA level

Q: And the “expression of LAG3” value [3]?
A: inhibits

Q: And the “expression of TIM3” value [4]?
A: inhibits

Q: What about the “expression of CTLA4” value [5] of the same molecule?
A: inhibits

Q: And the “cytolytic activity (specific lysis of target cells, PI staining)” value [6]?
A: enhance cytolytic activity of immune cells

Q: What about the “cytolytic activity (specific lysis of target cells, PI staining)” value [7] of the same molecule?
A: enhance cytolytic activity of immune cells

Q: Which “PD-1 cell surface expression” value [8] does the source give for `C[C@@]1(CO)[C@H](O)CC[C@@]2(C)[C@H]1CC[C@H]1C[C@@H]3C[C@@]12CC[C@]3(O)CO` [aphidicolin] here?
A: do not inhibit PD-1 expression; also recorded: do not impact PD-1 expression

Q: With `COC1=C[C@@H]2C3=C([C@@H]2C1=O)[C@@H](NC(C)=O)CCc1cc(OC)c(OC)c(OC)c13` [beta-Lumi(−)-colchicine] as the molecule, how does the “PD-1 cell surface expression” value [8] read?
A: does not affect PD-1 expression

Q: What about the “PD-1 cell surface expression” value ([8]; listed as β-Lumi(−)-Colchicine) of the same molecule?
A: do not impact PD-1 expression

Q: How did the “PD-1 cell surface expression” value [8] turn out when `CC[C@@]1(O)C(=O)OCc2c1cc1n(c2=O)Cc2cc3ccccc3nc2-1` [camptothecin] was run?
A: do not inhibit PD-1 expression; also recorded: do not impact PD-1 expression

Q: Which “PD-1 cell surface expression” value [8] does the source give for `CO[C@@]12[C@H](COC(N)=O)C3=C(C(=O)C(C)=C(N)C3=O)N1C[C@@H]1N[C@@H]12` [mitomycin C] here?
A: do not inhibit PD-1 expression; also recorded: do not impact PD-1 expression

Q: With `CC(C)[C@]12O[C@H]1[C@@H]1O[C@]13[C@]1(O[C@H]1C[C@H]1C4=C(CC[C@@]13C)C(=O)OC4)[C@@H]2O` [triptolide] as the molecule, how does the “PD-1 cell surface expression” value [8] read?
A: do not inhibit PD-1 expression; also recorded: do not impact PD-1 expression

B1: tubulin (endogenous, immunoprecipitated with an anti-α-tubulin antibody from extracts of activated human CD3+ T lymphocytes) (other)
chain 1: MRECISIHVGQAGVQIGNACWELYCLEHGIQPDGQMPSDKTIGGGDDSFNTFFSETGAGKHVPRAVFVDLEPTVIDEVRTGTYRQLFHPEQLITGKEDAANNYARGHYTIGKEIIDLVLDRIRKLADQCTRLQGFLVFHSFGGGTGSGFTSLLMERLSVDYGKKSKLEFSIYPAPQVSTAVVEPYNSILTTHTTLEHSDCAFMVDNEAIYDICRRNLDIERPTYTNLNRLISQIVSSITASLRFDGALNVDLTEFQTNLVPYPRIHFPLATYAPVISAEKAYHEQLSVADITNACFEPANQMVKCDPGHGKYMACCLLYRGDVVPKDVNAAIATIKTKRTIQFVDWCPTGFKVGINYQPPTVVPGGDLAKVQRAVCMLSNTTAIAEAWARLDHKFDLMYAKRAFVHWYVGEGMEEGEFSEAREDMAALEKDYEEVGVDSVEGEGEEEGEEY
chain 2: MREIVHIQAGQCGNQIGAKFWEVISDEHGIDPTGTYHGDSDLQLDRISVYYNEATGGKYVPRAILVDLEPGTMDSVRSGPFGQIFRPDNFVFGQSGAGNNWAKGHYTEGAELVDSVLDVVRKEAESCDCLQGFQLTHSLGGGTGSGMGTLLISKIREEYPDRIMNTFSVVPSPKVSDTVVEPYNATLSVHQLVENTDETYCIDNEALYDICFRTLRLTTPTYGDLNHLVSGTMECVTTCLRFPGQLNADLRKLAVNMVPFPRLHFFMPGFAPLTSRGSQQYRALTVPDLTQQVFDAKNMMAACDPRHGRYLTVAAVFRGRMSMKEVDEQMLNVQNKNSSYFVEWIPNNVKTAVCDIPPRGLKMAVTFIGNSTAIQELFKRISEQFTAMFRRKAFLHWYTGEGMDEMEFTEAESNMNDLVSEYQQYQDATAEEEEDFGEEAEEEA
notes: Endogenous protein from a cell lysate; also called alpha-tubulin
Q: Does B1 bind [9]?
A: no binding
